Data reported in ChEMBL document CHEMBL5113398, “Design and synthesis of new quinoline derivatives as selective C-RAF kinase inhibitors with potent anticancer activity” (Eur J Med Chem, 2022).
In brackets after ≈: the same amount, converted by molar mass. One block for each molecule: values may come before it.

Assays:
SK-OV-3 [1] = test: Anticancer activity against human SK-OV-3 cells assessed as cell growth inhibition incubated for 48 hrs by SRB assay; type: functional
SNB-75 = test: Anticancer activity against human SNB-75 cells assessed as total cell growth inhibition incubated for 48 hrs by SRB assay; type: functional
RPMI-8226 [2] = test: Induction of apoptosis in human RPMI-8226 assessed as fold increase in caspase-3/7 activity at 0.84 uM; type: functional
NCI-H322M = test: Anticancer activity against human NCI-H322M cells assessed as total cell growth inhibition incubated for 48 hrs by SRB assay; type: functional
HCC 2998 = test: Anticancer activity against human HCC 2998 cells assessed as cell growth inhibition incubated for 48 hrs by SRB assay; type: functional
RPMI-8226 [3] = test: Induction of apoptosis in human RPMI-8226 assessed as fold increase in caspase-3/7 activity at 1.68 uM; type: functional
NCI-H522 = test: Anticancer activity against human NCI-H522 cells assessed as cell growth inhibition incubated for 48 hrs by SRB assay; type: functional
HCT-116 [4] = test: Anticancer activity against human HCT-116 cells assessed as total cell growth inhibition incubated for 48 hrs by SRB assay; type: functional
[5] = target: Vascular endothelial growth factor receptor 2 (Homo sapiens) (UniProt P35968); test: Inhibition of VEGFR2 (unknown origin) at 1 uM in presence of ATP by hotspot kinase assay
SK-OV-3 [6] = test: Anticancer activity against human SK-OV-3 cells assessed as total cell growth inhibition incubated for 48 hrs by SRB assay; type: functional
[7] = Apparent permeability of the compound from apical to basolateral side in human Caco-2 cells at pH 6.5 to 7.4; type: ADME, cell-based; conditions: Caco-2, pH 6.5
KM12 = test: Anticancer activity against human KM12 cells assessed as total cell growth inhibition incubated for 48 hrs by SRB assay; type: functional
A498 = test: Anticancer activity against human A498 cells assessed as cell growth inhibition incubated for 48 hrs by SRB assay; type: functional
HL-60 [8] = test: Anticancer activity against human HL-60 cells assessed as cell growth inhibition incubated for 48 hrs by SRB assay; type: functional
T47D = test: Anticancer activity against human T47D cells assessed as total cell growth inhibition incubated for 48 hrs by SRB assay; type: functional
RXF 393 = test: Anticancer activity against human RXF 393 cells assessed as cell growth inhibition incubated for 48 hrs by SRB assay; type: functional
[9] = Apparent permeability across apical to basolateral side in human Caco-2 cells assessed as drug recovery at pH 6.5 to 7.4; type: ADME, cell-based; conditions: Caco-2, pH 6.5, read-out: Drug recovery
A549 = test: Anticancer activity against human A549 cells assessed as total cell growth inhibition incubated for 48 hrs by SRB assay; type: functional
SF-295 = test: Anticancer activity against human SF-295 cells assessed as total cell growth inhibition incubated for 48 hrs by SRB assay; type: functional
[10] = Aqueous solubility of compound by HPLC analysis; type: physicochemical
SF-268 = test: Anticancer activity against human SF-268 cells assessed as cell growth inhibition incubated for 48 hrs by SRB assay; type: functional
SF-539 [11] = test: Anticancer activity against human SF-539 cells assessed as cell growth inhibition incubated for 48 hrs by SRB assay; type: functional
EKVX [12] = test: Anticancer activity against human EKVX cells assessed as cell growth inhibition incubated for 48 hrs by SRB assay; type: functional
PC-3 = test: Anticancer activity against human PC-3 cells assessed as cell growth inhibition incubated for 48 hrs by SRB assay; type: functional
EKVX [13] = test: Anticancer activity against human EKVX cells assessed as total cell growth inhibition incubated for 48 hrs by SRB assay; type: functional
RPMI-8226 [14] = test: Induction of necrosis in human RPMI-8226 cells assessed as LDH release at 0.84 uM; type: functional
OVCAR-4 [15] = test: Anticancer activity against human OVCAR-4 cells assessed as cell growth inhibition incubated for 48 hrs by SRB assay; type: functional
SK-MEL-28 = test: Anticancer activity against human SK-MEL-28 cells assessed as cell growth inhibition incubated for 48 hrs by SRB assay; type: functional
[16] = Cytotoxicity against human WI-38 cells assessed as cell growth inhibition incubated for 48 hrs by SRB assay; type: toxicity, cell-based
[17] = target: Dual specificity mitogen-activated protein kinase kinase 2 (Homo sapiens) (UniProt P36507); test: Inhibition of MEK2 (unknown origin) at 1 uM in presence of ATP by hotspot kinase assay
RPMI-8226 [18] = test: Induction of apoptosis in human RPMI-8226 assessed as fold increase in caspase-3/7 activity at 2.12 uM; type: functional
NCI-H23 = test: Anticancer activity against human NCI-H23 cells assessed as total cell growth inhibition incubated for 48 hrs by SRB assay; type: functional
NCI-H460 = test: Anticancer activity against human NCI-H460 cells assessed as cell growth inhibition incubated for 48 hrs by SRB assay; type: functional
OVCAR-4 [19] = test: Anticancer activity against human OVCAR-4 cells assessed as total cell growth inhibition incubated for 48 hrs by SRB assay; type: functional
CAKI-1 = test: Anticancer activity against human CAKI-1 cells assessed as total cell growth inhibition incubated for 48 hrs by SRB assay; type: functional
RPMI-8226 [20] = test: Induction of necrosis in human RPMI-8226 cells assessed as LDH release at 1.68 uM; type: functional
HL-60 [21] = test: Anticancer activity against human HL-60 cells assessed as total cell growth inhibition incubated for 48 hrs by SRB assay; type: functional
LOX IMVI = test: Anticancer activity against human LOX IMVI cells assessed as cell growth inhibition incubated for 48 hrs by SRB assay; type: functional
UACC-257 = test: Anticancer activity against human UACC-257 cells assessed as total cell growth inhibition incubated for 48 hrs by SRB assay; type: functional
RPMI-8226 [22] = test: Induction of necrosis in human RPMI-8226 cells assessed as LDH release at 2.12 uM; type: functional
SF-539 [23] = test: Anticancer activity against human SF-539 cells assessed as total cell growth inhibition incubated for 48 hrs by SRB assay; type: functional
HCT-116 [24] = test: Anticancer activity against human HCT-116 cells assessed as cell growth inhibition incubated for 48 hrs by SRB assay; type: functional
COLO 205 = test: Anticancer activity against human COLO 205 cells assessed as cell growth inhibition incubated for 48 hrs by SRB assay; type: functional
K562 = test: Anticancer activity against human K562 cells assessed as cell growth inhibition incubated for 48 hrs by SRB assay; type: functional
OVCAR-8 = test: Anticancer activity against human OVCAR-8 cells assessed as total cell growth inhibition incubated for 48 hrs by SRB assay; type: functional
[25] = target: Serine/threonine-protein kinase A-Raf (Homo sapiens) (UniProt P10398); test: Inhibition of A-Raf (unknown origin) at 1 uM in presence of ATP by hotspot kinase assay
Chain of Serine/threonine-protein kinase A-Raf (Homo sapiens) (P10398 whole entry): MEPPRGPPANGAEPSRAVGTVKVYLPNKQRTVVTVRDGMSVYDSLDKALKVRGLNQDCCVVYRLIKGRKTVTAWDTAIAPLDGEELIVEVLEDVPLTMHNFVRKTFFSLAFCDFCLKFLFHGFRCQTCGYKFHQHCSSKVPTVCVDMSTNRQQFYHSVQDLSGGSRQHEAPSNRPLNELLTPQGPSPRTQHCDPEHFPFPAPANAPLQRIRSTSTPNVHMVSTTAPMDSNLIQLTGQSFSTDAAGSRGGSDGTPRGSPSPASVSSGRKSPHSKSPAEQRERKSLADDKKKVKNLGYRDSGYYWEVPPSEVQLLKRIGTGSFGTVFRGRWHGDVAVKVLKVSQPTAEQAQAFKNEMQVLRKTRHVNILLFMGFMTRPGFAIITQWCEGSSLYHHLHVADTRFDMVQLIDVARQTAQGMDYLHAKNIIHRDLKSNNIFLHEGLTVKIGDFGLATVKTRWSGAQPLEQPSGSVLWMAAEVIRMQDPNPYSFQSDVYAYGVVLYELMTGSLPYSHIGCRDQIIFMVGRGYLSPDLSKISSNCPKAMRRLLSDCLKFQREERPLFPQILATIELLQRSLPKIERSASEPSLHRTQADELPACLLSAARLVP

Chain of Vascular endothelial growth factor receptor 2 (Homo sapiens) (P35968 whole entry): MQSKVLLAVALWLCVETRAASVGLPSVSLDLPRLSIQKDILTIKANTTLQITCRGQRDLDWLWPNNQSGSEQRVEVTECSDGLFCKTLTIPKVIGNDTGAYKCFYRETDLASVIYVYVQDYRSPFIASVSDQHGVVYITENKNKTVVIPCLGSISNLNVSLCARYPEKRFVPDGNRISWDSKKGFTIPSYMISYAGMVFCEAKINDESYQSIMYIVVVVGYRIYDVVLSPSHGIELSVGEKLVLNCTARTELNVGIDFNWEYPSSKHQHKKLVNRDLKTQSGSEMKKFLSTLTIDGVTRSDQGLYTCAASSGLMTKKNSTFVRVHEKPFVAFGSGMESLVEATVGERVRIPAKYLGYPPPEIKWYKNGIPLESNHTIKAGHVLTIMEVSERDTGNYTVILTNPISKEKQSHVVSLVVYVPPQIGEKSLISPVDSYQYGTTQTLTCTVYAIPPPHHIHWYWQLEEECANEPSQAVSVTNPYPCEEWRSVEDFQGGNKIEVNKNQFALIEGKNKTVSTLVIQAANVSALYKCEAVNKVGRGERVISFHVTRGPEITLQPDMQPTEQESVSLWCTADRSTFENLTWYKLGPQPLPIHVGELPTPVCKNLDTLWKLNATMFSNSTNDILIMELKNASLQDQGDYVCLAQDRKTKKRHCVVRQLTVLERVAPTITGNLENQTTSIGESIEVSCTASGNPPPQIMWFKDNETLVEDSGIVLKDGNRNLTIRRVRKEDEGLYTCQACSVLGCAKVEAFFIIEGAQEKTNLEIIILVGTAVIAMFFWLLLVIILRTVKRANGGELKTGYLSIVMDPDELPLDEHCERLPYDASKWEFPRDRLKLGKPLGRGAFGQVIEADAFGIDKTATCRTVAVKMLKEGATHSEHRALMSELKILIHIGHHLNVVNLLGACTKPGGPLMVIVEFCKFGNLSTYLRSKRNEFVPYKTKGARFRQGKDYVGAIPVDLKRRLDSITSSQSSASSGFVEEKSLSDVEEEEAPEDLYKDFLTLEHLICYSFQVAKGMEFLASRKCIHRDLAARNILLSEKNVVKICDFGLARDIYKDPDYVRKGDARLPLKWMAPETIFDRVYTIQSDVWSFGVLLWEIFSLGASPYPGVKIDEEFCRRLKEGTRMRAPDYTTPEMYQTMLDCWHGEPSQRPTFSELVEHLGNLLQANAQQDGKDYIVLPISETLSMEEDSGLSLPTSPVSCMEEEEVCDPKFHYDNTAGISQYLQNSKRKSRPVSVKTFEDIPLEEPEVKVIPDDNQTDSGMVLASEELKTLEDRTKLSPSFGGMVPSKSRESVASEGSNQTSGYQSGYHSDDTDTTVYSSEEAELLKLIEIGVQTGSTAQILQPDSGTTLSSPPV
Chain of Dual specificity mitogen-activated protein kinase kinase 2 (Homo sapiens) (P36507 whole entry): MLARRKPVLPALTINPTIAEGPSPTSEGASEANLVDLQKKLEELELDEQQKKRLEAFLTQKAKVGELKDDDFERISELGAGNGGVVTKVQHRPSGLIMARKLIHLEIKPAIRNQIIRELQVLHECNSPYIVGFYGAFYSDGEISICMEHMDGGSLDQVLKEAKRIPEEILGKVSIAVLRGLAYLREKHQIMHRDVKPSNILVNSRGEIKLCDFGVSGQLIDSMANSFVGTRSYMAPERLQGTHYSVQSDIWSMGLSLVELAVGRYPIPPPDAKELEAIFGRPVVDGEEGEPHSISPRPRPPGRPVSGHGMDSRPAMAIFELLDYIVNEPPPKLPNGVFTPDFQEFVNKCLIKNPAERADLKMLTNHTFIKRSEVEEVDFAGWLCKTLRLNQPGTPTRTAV

GI50 (SK-OV-3 [1]): 2.09 µM
GI50 (HCC 2998): 2.09 µM
GI50 (NCI-H522): 1.63 µM
inhibition [5]: 6.34%
Papp A→B [7]: 0.4 ×10⁻⁶ cm/s
GI50 (HL-60 [8]): 1.62 µM
recovery [9]: 74%
solubility [10]: 317 µM (≈ 211 µg/mL)
GI50 (PC-3): 1.18 µM
GI50 (OVCAR-4 [15]): 1.88 µM
GI50 (SK-MEL-28): 1.8 µM
inhibition [17]: 16.4%
GI50 (NCI-H460): 1.66 µM
GI50 (HCT-116 [24]): 1.42 µM
GI50 (COLO 205): 1.02 µM
GI50 (K562): 1.41 µM
inhibition [25]: 1.23%
Compound: COc1cc2cc(Oc3ccc(NC(=O)Nc4cc(C(F)(F)F)cc(C(F)(F)F)c4)cc3)c(C)nc2cc1OCCN1CCOCC1
TGI (SNB-75): 4.48 µM
fold change (FC) (RPMI-8226 [2]): 1.97
TGI (NCI-H322M): 6.87 µM
fold change (FC) (RPMI-8226 [3]): 2.68
TGI (HCT-116 [4]): 5.33 µM
TGI (SK-OV-3 [6]): 8.5 µM
TGI (KM12): 5.95 µM
GI50 (A498): 1.8 µM
TGI (T47D): 10.2 µM
GI50 (RXF 393): 1.12 µM
TGI (A549): 7.23 µM
TGI (SF-295): 2.92 µM
GI50 (SF-268): 1.98 µM
GI50 (SF-539 [11]): 1.54 µM
GI50 (EKVX [12]): 1.64 µM
TGI (EKVX [13]): 6.68 µM
Activity (RPMI-8226 [14]): 9.5%
GI50 at 48 h [16]: > 20 µM
fold change (FC) (RPMI-8226 [18]): 2.84
TGI (NCI-H23): 6.69 µM
TGI (OVCAR-4 [19]): 6.95 µM
TGI (CAKI-1): 5.68 µM
Activity (RPMI-8226 [20]): 23.4%
TGI (HL-60 [21]): 4.93 µM
GI50 (LOX IMVI): 1.46 µM
TGI (UACC-257): 4.24 µM
Activity (RPMI-8226 [22]): 31.65%
TGI (SF-539 [23]): 5.25 µM
TGI (OVCAR-8): 12.8 µM

GI50 (SK-OV-3 [1]): 3.34 µM
GI50 (HCC 2998): 11.1 µM
GI50 (NCI-H522): 1.43 µM
inhibition [5]: 2.32%
GI50 (HL-60 [8]): 2.32 µM
solubility [10]: 349 µM (≈ 221 µg/mL)
GI50 (PC-3): 1.36 µM
GI50 (OVCAR-4 [15]): 0.58 µM
GI50 (SK-MEL-28): 1.55 µM
inhibition [17]: 17.3%
GI50 (NCI-H460): 1.65 µM
GI50 (HCT-116 [24]): 10.8 µM
GI50 (COLO 205): 1.63 µM
GI50 (K562): 0.67 µM
inhibition [25]: -6.33%
Compound: COc1cc2cc(Oc3ccc(NC(=O)Nc4ccc(Cl)c(C(F)(F)F)c4)cc3)c(C)nc2cc1OCCN1CCOCC1
TGI (SNB-75): 7.05 µM
TGI (NCI-H322M): 11.2 µM
TGI (HCT-116 [4]): 10.8 µM
TGI (SK-OV-3 [6]): 17.5 µM
TGI (KM12): 5.3 µM
GI50 (A498): 2.45 µM
TGI (T47D): 5.2 µM
GI50 (RXF 393): 1.77 µM
TGI (A549): > 100 µM
TGI (SF-295): 2.85 µM
GI50 (SF-268): 2.59 µM
GI50 (SF-539 [11]): 1.68 µM
GI50 (EKVX [12]): 2.07 µM
TGI (EKVX [13]): 13.7 µM
GI50 at 48 h [16]: > 20 µM
TGI (NCI-H23): 3.89 µM
TGI (OVCAR-4 [19]): 3.41 µM
TGI (CAKI-1): 10.8 µM
TGI (HL-60 [21]): 7.56 µM
GI50 (LOX IMVI): 1.39 µM
TGI (UACC-257): 4.55 µM
TGI (SF-539 [23]): 3.26 µM
TGI (OVCAR-8): > 100 µM

GI50 (SK-OV-3 [1]): 3.76 µM
GI50 (HCC 2998): 5.34 µM
GI50 (NCI-H522): 2.04 µM
inhibition [5]: -5.85%
GI50 (HL-60 [8]): 2.38 µM
solubility [10]: 497 µM (≈ 305 µg/mL)
GI50 (PC-3): 1.44 µM
GI50 (OVCAR-4 [15]): 0.71 µM
GI50 (SK-MEL-28): 1.62 µM
inhibition [17]: 10.4%
GI50 (NCI-H460): 1.96 µM
GI50 (HCT-116 [24]): 1.11 µM
GI50 (COLO 205): 1.87 µM
GI50 (K562): 0.88 µM
Compound: COc1cc2cc(Oc3ccc(NC(=O)Nc4ccc(F)c(C(F)(F)F)c4)cc3)c(C)nc2cc1OCCN1CCOCC1
TGI (SNB-75): 7.45 µM
TGI (NCI-H322M): 13.6 µM
TGI (HCT-116 [4]): 11.2 µM
TGI (SK-OV-3 [6]): 26.7 µM
TGI (KM12): 10.6 µM
GI50 (A498): 2.8 µM
TGI (T47D): 32.1 µM
GI50 (RXF 393): 1.78 µM
TGI (A549): 34.3 µM
TGI (SF-295): 4.22 µM
GI50 (SF-268): 3.66 µM
GI50 (SF-539 [11]): 1.77 µM
GI50 (EKVX [12]): 2.53 µM
TGI (EKVX [13]): 20.7 µM
GI50 at 48 h [16]: > 20 µM
TGI (NCI-H23): 5.88 µM
TGI (OVCAR-4 [19]): 5.23 µM
TGI (CAKI-1): 9.55 µM
TGI (HL-60 [21]): 6.14 µM
GI50 (LOX IMVI): 1.44 µM
TGI (UACC-257): 5.18 µM
TGI (SF-539 [23]): 3.44 µM
TGI (OVCAR-8): > 100 µM
